This note sets out measurements from patent publication US20170311603A1 (priority 2014, published 2017).

For one series, the system named is B. cinerea B0510. Description: Mycelial growth of B. cinerea on supplemented PDA medium (Example 2). The class given is cell-based, Botrytis cinerea. The conditions noted are these: after 8 days, versus control (100%).
Series [1] relates to N. parvum isolate Bourgogne S-116. Set-up: species or system V. vinifera L. cv. Chardonnay. The following applies: in vivo.
Series [2] has the same test system. Description: Mycelial growth of N. parvum on supplemented PDA medium (Example 1). Format: cell-based, Neofusicoccum parvum. The conditions noted are these: after 4 days, versus control (100%).
For series [3], the system named is Calli of V. vinifera cv. Chardonnay. Description: Phytotoxicity on grapevine cell clusters (calli) (Example 4). The class given is cell-based, V. vinifera L. cv. Chardonnay. The conditions noted are these: for appearance and color of the calli: MPM1 medium supplemented with 5 or 10 mM. On the procedure: Calli (or undifferentiated cell clusters) of V. vinifera cv. Chardonnay are obtained from anthers as described in Mauro et al. (1986) and in Bertsch et al. (2005).
All the calli are inoculated on fresh solid MPM1 medium (Perrin et al. 2004) every 3 weeks and incubated at 25±0.5° C. in the dark with a relative humidity of 70±10%.
This experiment was repeated three times. For each condition, 15 white-yellow calli, with a diameter of 10±2 mm, were used.
Calli growth in each condition tested is evaluated by weighing each day for 5 days. Duncan's statistical test (with p≦0.05) was applied to the means and standard deviations of the results thus obtained. In addition to weighing, we visually evaluate the appearance and color of the calli according to their culture medium for 2 months.

As for `[Bi+3].[Bi+3].[O-2].[O-2].[O-2]` [bismuth oxide], the “inhibition of the growth of the fungus on the culture medium” value (from here on “inhibition of the growth of the fungus”) (in the series with B. cinerea B0510; in series [2]) was “do not significantly inhibit the growth of the fungus” throughout. The “reduction in the surface area of the necrotic lesions” value in series [1] worked out at 5%. Also, in series [3], the “appearance and color of the calli” value is recorded as “no change”.
As to `O=C1[O][Bi]([OH])[O]c2ccccc21` [bismuth subsalicylate], the “appearance and color of the calli” value in series [3] is “light grayish coloring at the periphery of the calli but no necrosis”. In series [3] (supplemented MPM1 medium, 5 days of culture), the “growth of the calli (weighing)” value is on record as “no impact in terms of growth, multiplication or necrotic appearance”.
Take `O=C([O-])CC(O)(CC(=O)[O-])C(=O)[O-].[Bi+3]` [bismuth citrate]: the “inhibition of the growth of the fungus” value (with B. cinerea B0510; in series [2]) was “do not significantly inhibit the growth of the fungus” in each case.
For the compound `[O-2].[O-2].[O-2].[Sb+3].[Sb+3]` [antimony oxide], the “inhibition of the growth of the fungus” value (with B. cinerea B0510; in series [2]) was “do not significantly inhibit the growth of the fungus” in each case.
For the compound `O=C(O)c1ccccc1O` [salicylic acid], the “inhibition of the development of necrosis on the inoculated internodes” value in series [1] was “does not significantly inhibit the development of necrosis”. The “appearance and color of the calli” value in series [3] is on record as “light grayish coloring at the periphery of the calli but no necrosis”.
